Data as given in US20250326744A1, “PIPERAZINE DERIVATIVE OR SALT THEREOF, AND PHARMACEUTICAL COMPOSITION” (priority 2022, published 2025).
Counter-ions that a name gives are not always drawn.

Tests used:
[1] = system: mexB (EC) strain; experiment: Efflux ability inhibition effect on drug efflux pump MexB (Test Examples 1 and 3): proliferation (OD595) of mexB (EC) strain with EM or LVFX at 1/4 MIC, EC75; type: cell-based, Escherichia coli; conditions: Table 51, Test Example 1, 16 to 20 hours culture, OD595; for EC75, mexB (EC) strain, EM: combined with EM at 1/4 MIC; for EC75, mexB (EC) strain, LVFX: combined with LVFX at 1/4 MIC
Procedure: (§1) The efflux ability inhibition effect of the test compound on the drug efflux pump was evaluated using the bacterial proliferative ability in the presence of EM or LVFX as an index.
(§2) EM is a macrolide antibacterial agent and is a drug that is discharged outside the bacteria by MexB and MexY LVFX is a quinolone antibacterial agent and is a drug that is discharged outside the bacteria by MexB and MexY In a case where the test compound has an efflux ability inhibitory ability against the drug efflux pump, the proliferation of bacteria is suppressed by the combined use of EM or LVFX and the test compound, as compared with the case where EM or LVFX is used alone.
(§3) A mutant strain (hereinafter, referred to as an “mexB (EC) strain”) obtained by transferring the genes of the main multidrug efflux system MexAB-OprM of Pseudomonas aeruginosa described in Nature, 2013, Vol. 500, pp. 102 to 106 as a plasmid into Escherichia coli strains in which the acrB and tolC genes of the multidrug efflux system AcrAB-TolC were deleted as described in Journal of Infection and Chemotherapy 2008, Vol. 14, pp. 23 to 29, and a gene transfer strain (hereinafter, referred to as an “mexY (EC) strain”) of another main multidrug efflux system MexXY-OprM of Pseudomonas aeruginosa were used for the evaluation of test compounds.
(§4) In the mexB (EC) strain, an expression level of MexB of the drug efflux pump is accelerated, and in the mexY (EC) strain, an expression level of MexY of the drug efflux pump is accelerated.
(§5) For culturing each Escherichia coli strain, a 96-well plate (amount of culture medium per well: 100 μL) was used and Luria-Bertani broth (LB) culture medium was used. The inoculation amount of the bacteria was set to 10^4 to 5 CFU/well.
(§6) The mexB (EC) strain and the mexY (EC) strain were cultured for 16 to 20 hours in a culture medium to which EM or LVFX and test compounds at various concentrations (0 to 800 μM) were added, and the proliferation of the bacterial strains was evaluated by optical turbidity at 595 nm (OD595). The concentration of the antibacterial agents (EM and LVFX) in the culture medium were each set to ¼ of the minimum inhibitory concentration (MIC) (hereinafter, referred to as ¼ MIC) of the single antibacterial agent.
(§7) The proliferation of bacteria in a case where the antibacterial agent was added at the concentration of ¼ MIC in a case where the test compound was not added was measured, and compared with the proliferation of bacteria in a case where the test compound was contained, and the lowest concentration of the test compound at which the proliferation was inhibited by 75% or more was defined as the drug efflux pump inhibitory ability of the test compound as 75% inhibitory effect concentration (EC75).
(§8) The drug efflux pump inhibitory ability of each test compound in a case of being used in combination with the antibacterial agent against the mexB (EC) strain and the mexY (EC) strain was evaluated as follows according to the value of EC75. • S: EC75≤[…] • A: 12.5 μM<EC75≤25 μM • B: 25 μM<EC75≤100 μM • C: […]
(§9) In the same manner as in Test Example 1, the efflux ability inhibition effect of the test compound on the drug efflux pump was evaluated using the bacterial proliferation ability in the presence of EM or LVFX as an index.

[2] = system: mexY (EC) strain; experiment: Efflux ability inhibition effect on drug efflux pump MexY (Test Examples 1 and 3): proliferation (OD595) of mexY (EC) strain with EM or LVFX at 1/4 MIC, EC75; type: cell-based, Escherichia coli; conditions: Table 53, Test Example 3, same manner as Test Example 1; for EC75, mexY (EC) strain, EM: combined with EM at 1/4 MIC; for EC75, mexY (EC) strain, LVFX: combined with LVFX at 1/4 MIC
Procedure: as §1, §2, §3, §4, §5, §6, §7, §8, §9

[3] = system: mexB (PA) strain; experiment: Combinational effect with antibacterial agent against Pseudomonas aeruginosa (Test Examples 2 and 4): mexB (PA) strain with LVFX, TC or AZT at 1/4 MIC, EC99; type: cell-based; conditions: mexB (PA) strain, Test Example 4; for EC99, combinational effect with AZT, mexB (PA): combined with AZT at 1/4 MIC; for EC99, combinational effect with LVFX, mexB (PA): combined with LVFX at 1/4 MIC; for EC99, combinational effect with TC, mexB (PA): combined with TC at 1/4 MIC
Method in brief: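 EC99 denotes the minimum test-compound concentration (range 0–800 μM) that suppresses ≥99% of growth, measured by OD595, when combined with ¼ MIC levofloxacin (LVFX), tetracycline or aztreonam. The efflux-pump mutant mexB (PA), expressing mainly MexAB-OprM, was inoculated at 10^4–5 CFU/well in CAMHB for 16–20 h.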

[4] = system: S-3769 strain; experiment: Combinational effect with antibacterial agent against Pseudomonas aeruginosa (Test Examples 2 and 4): S-3769 strain with AMK or GM at 1/4 MIC, EC99; type: cell-based; conditions: S-3769 strain, Test Example 4; for EC99, combinational effect with AMK, S-3769 strain: combined with AMK at 1/4 MIC; for EC99, combinational effect with GM, S-3769 strain: combined with GM at 1/4 MIC
Method in brief: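 EC99, the lowest test-compound concentration inhibiting growth by ≥99% (OD595), was measured with aminoglycoside AMK or GM held at ¼ MIC. Strain S-3769, a MexY-overexpressing clinical isolate, was cultured in CAMHB at 10^4 to 5 CFU/well for 16–20 h; compound range 0–800 μM.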

## CCOc1cccc(/C=C/c2nnn[nH]2)c1CN1CCN(C(=O)[C@H](N)C2CCN(CCc3ccccc3)CC2)CC1 [Example 33, Hydrobromide of (R,E)-1-(4-(2-(2-(1H-tetrazol-5-yl)vinyl)-6-ethoxybenzyl)piperazin-1-yl)-2-amino-2-(1-phenethylpiperidin-4-yl) ethan-1-one]
[1]
  EC75, mexB (EC) strain, EM: B (25 μM<EC75≤100 μM)
  EC75, mexB (EC) strain, LVFX: B (25 μM<EC75≤100 μM)

## N[C@@H](C(=O)N1CCN(Cc2cccc3cc[nH]c23)CC1)C1CCN(CCc2cc(Cl)ccc2-c2ccccc2)CC1 [Example 40, Hydrobromide of (R)-1-(4-((1H-indol-7-yl)methyl)piperazin-1-yl)-2-amino-2-(1-(2-(4-chloro-[1,1′-biphenyl]-2-yl)ethyl)piperidin-4-yl) ethan-1-one]
[1]
  EC75, mexB (EC) strain, LVFX: B (25 μM<EC75≤100 μM)

## CCOc1cccc(F)c1CN1CCN(C(=O)[C@H](N)C2CCN(CCc3cc(Cl)ccc3-c3cccc(F)c3)CC2)CC1 [Example 60, Hydrobromide of (R)-2-amino-2-(1-(2-(4-chloro-3′-fluoro-[1,1′-biphenyl]-2-yl)ethyl)piperidin-4-yl)-1-(4-(2-ethoxy-6-fluorobenzyl)piperazin-1-yl)ethan-1-one]
[1]
  EC75, mexB (EC) strain, EM: A (12.5 μM<EC75≤25 μM)

## CCOc1cccc(F)c1CN1CCN(C(=O)[C@H](N)C2CCN(CCc3ccccc3C(=O)OC)CC2)CC1 [Example 129, Hydrochloride of Methyl (R)-2-(2-(4-(1-amino-2-(4-(2-ethoxy-6-fluorobenzyl)piperazin-1-yl)-2-oxoethyl)piperidin-1-yl)ethyl)benzoate]
[1]
  EC75, mexB (EC) strain, EM: A (12.5 μM<EC75≤25 μM)

## CCOc1cccc(F)c1CN1CCN(C(=O)[C@H](N)C2CCN(CCc3cccc(O)c3)CC2)CC1 [Example 130, Hydrochloride of (R)-2-amino-1-(4-(2-ethoxy-6-fluorobenzyl)piperazin-1-yl)-2-(1-(3-hydrophenethyl)piperidin-4-yl) ethan-1-one]
[1]
  EC75, mexB (EC) strain, EM: B (25 μM<EC75≤100 μM)
  EC75, mexB (EC) strain, LVFX: A (12.5 μM<EC75≤25 μM)

## CCOc1cccc(F)c1CN1CCN(C(=O)[C@H](N)C2CCN(CCc3ccccc3N)CC2)CC1 [Example 146, Hydrobromide of (R)-2-amino-2-(1-(2-aminophenethyl)piperidin-4-yl)-1-(4-(2-ethoxy-6-fluorobenzyl)piperazin-1-yl) ethan-1-one]
[1]
  EC75, mexB (EC) strain, EM: A (12.5 μM<EC75≤25 μM)

## CCOc1cccc(F)c1CN1CCN(C(=O)[C@H](N)C2CCN(CCc3cn(-c4ccccc4F)c4ccccc34)CC2)CC1 [Example 157, Hydrobromide of (R)-2-amino-1-(4-(2-ethoxy-6-fluorobenzyl)piperazin-1-yl)-2-(1-(2-(1-(2-fluorophenyl)-1H-indol-3-yl)ethyl)piperidin-4-yl)ethan-1-one]
[1]
  EC75, mexB (EC) strain, EM: A (12.5 μM<EC75≤25 μM)
  EC75, mexB (EC) strain, LVFX: A (12.5 μM<EC75≤25 μM)

## CCOc1cccc(F)c1CN1CCN(C(=O)[C@H](N)C2CCN(CCc3nsc4ccccc34)CC2)CC1 [Example 160, Hydrobromide of (R)-2-amino-2-(1-(2-(benzo[d]isothiazol-3-yl)ethyl)piperidin-4-yl)-1-(4-(2-ethoxy-6-fluorobenzyl)piperazin-1-yl)ethan-1-one]
[1]
  EC75, mexB (EC) strain, EM: A (12.5 μM<EC75≤25 μM)
  EC75, mexB (EC) strain, LVFX: A (12.5 μM<EC75≤25 μM)

## CN(C)c1ccccc1CN1CCN(C(=O)CN2CCN(CCc3ccccc3)CC2)CC1 [Example 224, Hydrochloride of 1-(4-(2-(dimethylamino)benzyl)piperazin-1-yl)-2-(4-phenethylpiperazin-1-yl)ethan-1-one]
[1]
  EC75, mexB (EC) strain, LVFX: A (12.5 μM<EC75≤25 μM)

## N#Cc1ccccc1CN1CCN(C(=O)CN2CCN(CCc3ccccc3)CC2)CC1 [Example 234, Hydrochloride of 2-((4-(2-(4-phenethylpiperazin-1-yl)acetyl)piperazin-1-yl)methyl)benzonitrile]
[1]
  EC75, mexB (EC) strain, LVFX: B (25 μM<EC75≤100 μM)

## CSc1ccccc1CN1CCN(C(=O)[C@H](N)C2CCN(CCc3cc(Cl)ccc3-c3ccccc3Cl)CC2)CC1 [Example 555, Hydrobromide of (R)-2-amino-2-(1-(2-(2′,4-dichloro-[1,1-biphenyl]-2-yl)ethyl)piperidin-4-yl)-1-(4-(2-(methylthio)benzyl)piperazin-1-yl)ethan-1-one]
[2]
  EC75, mexY (EC) strain, EM: A (12.5 μM<EC75≤25 μM)
  EC75, mexY (EC) strain, LVFX: A (12.5 μM<EC75≤25 μM)
[3]
  EC99, combinational effect with AZT, mexB (PA): B (25 μM<EC99≤100 μM)
  EC99, combinational effect with LVFX, mexB (PA): B (25 μM<EC99≤100 μM)
  EC99, combinational effect with TC, mexB (PA): A (12.5 μM<EC99≤25 μM)
[4]
  EC99, combinational effect with AMK, S-3769 strain: B (25 μM<EC99≤100 μM)
  EC99, combinational effect with GM, S-3769 strain: B (25 μM<EC99≤100 μM)

## CCOc1cccc(F)c1CN1CCN(C(=O)[C@H](N)C2CC[N+](CCc3cc(Cl)ccc3-c3ccccc3)(CC(=O)[O-])CC2)CC1 (stereo partly drawn) [Example 567, Hydrobromide of (R)-2-(4-(1-amino-2-(4-(2-ethoxy-6-fluorobenzyl)piperazin-1-yl)-2-oxoethyl)-1-(2-(4-chloro-[1,1-biphenyl]-2-yl)ethyl)piperidin-4-ium-1-yl)acetate]
[2]
  EC75, mexY (EC) strain, EM: B (25 μM<EC75≤100 μM)
  EC75, mexY (EC) strain, LVFX: B (25 μM<EC75≤100 μM)
[3]
  EC99, combinational effect with AZT, mexB (PA): C (100 μM<EC99)
  EC99, combinational effect with LVFX, mexB (PA): C (100 μM<EC99)
  EC99, combinational effect with TC, mexB (PA): C (100 μM<EC99)
[4]
  EC99, combinational effect with AMK, S-3769 strain: B (25 μM<EC99≤100 μM)
  EC99, combinational effect with GM, S-3769 strain: C (100 μM<EC99)

## CCOc1cccc(F)c1CN1CCN(C(=O)[C@H](N)C2CCN(CCc3cc(Cl)ccc3-c3c[nH]ccc3=O)CC2)CC1 [Example 577, Hydrochloride of (R)-3-(2-(2-(4-(1-amino-2-(4-(2-ethoxy-6-fluorobenzyl)piperazin-1-yl)-2-oxoethyl)piperidin-1-yl)ethyl)-4-chlorophenyl)pyridine-4(1H)-one]
[2]
  EC75, mexY (EC) strain, LVFX: A (12.5 μM<EC75≤25 μM)
[3]
  EC99, combinational effect with AZT, mexB (PA): B (25 μM<EC99≤100 μM)
  EC99, combinational effect with LVFX, mexB (PA): B (25 μM<EC99≤100 μM)
  EC99, combinational effect with TC, mexB (PA): B (25 μM<EC99≤100 μM)
[4]
  EC99, combinational effect with AMK, S-3769 strain: C (100 μM<EC99)
  EC99, combinational effect with GM, S-3769 strain: C (100 μM<EC99)

## CCSc1cc(F)ccc1CN1CCN(C(=O)[C@H](N)C2CCN(CCc3cc(Cl)ccc3-c3ccccc3Cl)CC2)CC1 [Example 599, Hydrochloride of (R)-2-amino-2-(1-(2-(2′,4-dichloro-[1,1-biphenyl]-2-yl)ethyl)piperidin-4-yl)-1-(4-(2-(ethylthio)-4-fluorobenzyl)piperazin-1-yl)ethan-1-one]
[2]
  EC75, mexY (EC) strain, EM: A (12.5 μM<EC75≤25 μM)
[3]
  EC99, combinational effect with AZT, mexB (PA): S (EC99≤12.5 μM)
  EC99, combinational effect with LVFX, mexB (PA): S (EC99≤12.5 μM)
  EC99, combinational effect with TC, mexB (PA): S (EC99≤12.5 μM)
[4]
  EC99, combinational effect with AMK, S-3769 strain: B (25 μM<EC99≤100 μM)
  EC99, combinational effect with GM, S-3769 strain: S (EC99≤12.5 μM)
